Columns and labels:
Type in all cases: in vivo
Zea mays [1] = assay: Field test of Zea mays (ear yield); details: field cultivation, Belgium; seed coating 0.25 g tryptophan and/or 1000 g allantoin per tonne of seeds
Method: In the same manner as in Example 1, Zea mays seeds coated with 0.25 g of tryptophan per tonne of seeds, Zea mays seeds coated with 1000 g of allantoin per tonne of seeds, and Zea mays seeds coated with 0.25 g of tryptophan and 1000 g of allantoin per tonne of seeds were prepared. As a control group, seeds without coating were prepared.
• Location: the Wilderen MAR field, the Kingdom of Belgium • Variety: LIKEiT • Date of seeding: Apr. 27, 2020 • Date of harvesting: Oct. 12, 2020
Cultivation was performed in accordance with the conventional fertilization management technique and pest management technique, and the yield was inspected. • Inspection of yield: 120 strains/group; the number of repetitions: 4

soybean [2] = assay: Cultivation of soybean from coated seeds under salt stress conditions; details: salt stress (NaCl 1.0 g/L soil), 3 weeks after seeding, seed coating Trp 0.045-5 g and/or allantoin 50 g per tonne of seeds
Method: (§1) Soybean seeds (100 g; the variety: Fukuyutaka) were coated with 800 μL of a coating solution comprising tryptophan, allantoin, polyvinyl alcohol, and a coloring dye in water using a coater (SATEC). Coating was performed using either or both of tryptophan in an amount of 0 g, 0.045 g, 0.225 g, 0.45 g, or 5 g and allantoin in an amount of 0 g or 50 g per tonne of seeds.
Culture soil comprising sodium chloride at 1.0 g/L of the soil was filled into 7.5-cm pots, and the coated soybean seeds were seeded at 1 grain/pot. Cultivation was performed in a glass greenhouse, and inspection was performed 3 weeks after seeding. The dry weight of the underground part was measured. The test was repeated 9 times, and the average was determined.

wheat [3] = assay: Cultivation of wheat from coated seeds under salt stress conditions; details: salt stress (NaCl 4.0 g/L soil), 2 weeks after seeding, seed coating Trp 0.045-9 g and/or allantoin 50 g per tonne of seeds
Method: (§2) Wheat seeds (100 g; the variety: Yumechikara) were coated with 800 μL of a coating solution comprising tryptophan, allantoin, polyvinyl alcohol, and a coloring dye in water using a coater (SATEC). Coating was performed using either or both of tryptophan in an amount of 0 g, 0.045 g, 0.45 g, 4.5 g, or 9 g and allantoin in an amount of 0 g or 50 g per tonne of seeds.
Culture soil comprising sodium chloride at 4.0 g/L of the soil was filled into 7.5-cm pots, and the coated wheat seeds were seeded at 1 grain/pot. Cultivation was performed in a glass greenhouse, and inspection was performed 16 days after seeding. The height and the fresh weight of the aboveground part were measured, and the density (the fresh weight of the aboveground part/the height) was determined. The test was repeated 9 times, and the average was determined.
The density of the test groups treated with different amounts of tryptophan and allantoin was indicated as the rate of change (%), relative to the density of the test group (control group) treated with a coating solution not comprising tryptophan or allantoin.

wheat [4] = assay: Cultivation of wheat from coated seeds under non-stress conditions; details: 2 weeks after seeding, seed coating Trp 0.045-9 g and/or allantoin 50 g per tonne of seeds
Method: as §2, with “g,” for “g;”
(§3) Culture soil was filled into 12-cm vinyl pots, and the coated wheat seeds were seeded at 4 grains/pot. After germination, a differently grown strain was thinned to retain 3 strains in a pot. Cultivation was performed in a glass greenhouse, and inspection was performed 2 weeks after seeding. The test was repeated 6 times, and the average was determined.
(§4) The measured fresh weight of the aboveground part of plants in groups each treated with different amounts of tryptophan and allantoin was indicated as the rate of change (%), relative to the fresh weight of the aboveground part of plants in the test group (control group) treated with a coating solution not comprising tryptophan or allantoin.

Zea mays [5] = assay: Cultivation of Zea mays from coated seeds under non-stress conditions; details: dent corn, 3 weeks (21 days) after seeding, seed coating Trp 0.045-0.45 g and/or allantoin 50 or 500 g per tonne of seeds
Method: Dent corn seeds (100 g; the variety: Snow-dent “Otoha”) were coated with 800 μL of a coating solution comprising tryptophan, allantoin, polyvinyl alcohol, and a coloring dye in water using a coater (SATEC). Coating was performed using either or both of tryptophan in an amount of 0 g, 0.045 g, 0.225 g, or 0.45 g and allantoin in an amount of 0 g, 50 g, or 500 g per tonne of seeds (MT).
as §3, with “dent corn” for “wheat”, “21 days” for “2 weeks”, “seeding. The height, the fresh weight of the aboveground part, and the dry weight of the underground part were measured, and the density (the fresh weight of the aboveground part/the height) was determined. […]” for “seeding.”
The fresh weight of the aboveground part, the density, and the dry weight of the underground part measured for groups each treated with different amounts of tryptophan and allantoin were indicated as the rates of changes (%), relative to the fresh weight of the aboveground part, the density, and the dry weight of the underground part of plants in the test group (control group) treated with a coating solution not comprising tryptophan or allantoin. […]

soybean [6] = assay: Cultivation of soybean from coated seeds under non-stress conditions; details: 3 weeks after seeding, seed coating Trp 0.225-5 g and/or allantoin 25 g per tonne of seeds
Method: as §1, with “g,” for “g, 0.045 g,”, “25” for “50”
as §3, with “coated soybean” for “coated wheat”, “performed 3” for “performed 2”
as §4

SMILES | ear yield relative to the control group (100%) (Zea mays [1]) [%] | rate of change in the dry weight of the underground part relative to control group (soybean [2]) [%] | rate of change in the density relative to control group (wheat [3]) [%] | rate of change in the fresh weight of the aboveground part relative to control group (wheat [4]) [%] | rate of change in the fresh weight of the aboveground part relative to control group (Zea mays [5]) [%] | rate of change in the fresh weight of the aboveground part relative to control group (soybean [6]) [%]
N[C@@H](Cc1c[nH]c2ccccc12)C(=O)O [tryptophan, L-tryptophan] | 100.4 |  |  |  |  | 
NC(=O)NC1NC(=O)NC1=O (stereo not shown) [allantoin, 5-ureidohydantoin] | 100.4 | 2 | 3 | 1 | 5 | 4

Source: patent US20250212880A1, “COMPOSITION FOR COATING PLANT SEED” (priority 2022, published 2025)
